{"source": "patent US12622910B2", "about": "“Inhibitors of Bruton's tyrosine kinase and methods of their use” (Janssen Pharmaceutica NV, priority 2021, dated 2026)", "assay": "Phase 1 first-in-human study, plasma pharmacokinetics", "format": "in vivo", "settings": "for half-life / Tmax / AUC(0-inf) / Cmax / AUC(0-t): male, human, plasma, po", "description": "Safety, tolerability, PK, and BTKO were assessed for six doses of compound of Formula (III) oral solution (4, 12, 36, 100, 200, 400 mg) in participants under fasted conditions. The SAD part comprised 10 cohorts of 8 participants each (FIG. 1). In each cohort receiving compound of Formula (III) oral solution (Cohorts 1-9), 6 participants were randomized to receive compound of Formula (III) and 2 to receive placebo. All participants in Cohort 10 received compound of Formula (III) as an oral capsule. All 10 cohorts included 2 sentinel participants who were dosed ˜24 hours prior to the rest of the cohort. In cohorts receiving compound of Formula (III) oral solution, 1 sentinel participant received compound of Formula (III) and the other received placebo.\nSix male escalating dose cohorts received a single oral dose of 4, 12, 36, 100, 200, 400 mg compound of Formula (III) or placebo solution under fasted conditions. Gender effects were assessed in 2 female cohorts whose participants received either a 36 or 100 mg dose of compound of Formula (III) or placebo as an oral solution under fasted conditions. Food effects were evaluated in a male cohort receiving compound of Formula (III) 100 mg or placebo as an oral solution after a high-fat breakfast.\nSafety, tolerability, and PK of a solid dose formulation of compound of Formula (III) were assessed in an additional male cohort (Cohort 10) that received 3×35 mg (105 mg) of compound of Formula (III) in the fasted state. Since all the participants received the same dose of compound of Formula (III), this cohort was not blinded.\nSafety, tolerability, PK, and BTKO following multiple compound of Formula (III) doses were evaluated in 3 dose escalation cohorts with a total of 18 participants (males: 9, females: 9) receiving active study drug. In each cohort, 3 males and 3 females were randomized to receive 36 mg once-daily (QD), 100 mg QD, or 200 mg QD compound of Formula (III) oral solution and 3 participants (males: 2; female: 1) to receive placebo. Two male participants in each cohort served as sentinel participants: one received compound of Formula (III) and other received placebo ˜48 hours prior to other participants in the cohort. All safety and tolerability data (through the follow-up visit), PK data (through at least 24 hours after last dose administration), and all available PD data were reviewed from each cohort before a decision was made to dose escalate.\nSample collection—For the PK assessment of compound of Formula (III), venous blood samples (2 to 4 mL each) were collected predose and at 15 min, 0.5, 1, 1.5, 2, 2.5, 3, 4, 6, 8, 12, 24, 36, 48, and 72 hours post-dose in Part 1. In Part 2, samples were collected predose and at 15 min, 0.5, 1, 1.5, 2, 2.5, 3, 4, 6, 8, 12 hours post-dose on day 1, predose and 1 hour post-dose on days 2-9, and predose and at 15 min, 0.5, 1, 1.5, 2, 2.5, 3, 4, 6, 8, 12, 24, 48, and 72 hours after the last dose on day 10. Plasma samples were analyzed to determine concentrations of compound of Formula (III) using a scientific validated, specific, and sensitive liquid chromatography-mass spectrometry (LC-MS/MS) method.\nThe PK analysis for the compound of Formula (III) samples was performed using a non-compartmental method with validated Phoenix® WinNonlin® (version 8.0, Certara L.P.).", "key": {"[1]": {"settings": "36 mg, single 36 mg oral solution, male fasted"}, "[2]": {"settings": "100 mg, single 100 mg oral solution, male fasted"}, "[3]": {"settings": "100 mg, single 100 mg oral solution, male fed (high-fat breakfast)"}, "[4]": {"settings": "105 mg, single 105 mg (3 × 35 mg) oral capsule, male fasted"}, "[5]": {"settings": "200 mg, single 200 mg oral solution, male fasted"}, "[6]": {"settings": "400 mg, single 400 mg oral solution, male fasted"}, "[7]": {"settings": "single 12 mg oral solution, male fasted"}, "[8]": {"settings": "single 100 mg oral solution, female fasted"}}, "note": "Like-named read-outs stand apart in the source and are kept apart here. Marks after values point to notes of the source that are not given here.", "data": [{"smiles": "C=CC(=O)N[C@H]1CCC[C@H]1NC(=O)c1sc2nccc3c2c1NC(=O)N3c1cnc(CC(C)C)cc1C", "note": "(atropisomer, axis not shown) [compound of Formula (III), N-((1R,2S)-2-Acrylamidocyclopentyl)-5-(S)-(6-isobutyl-4-methylpyridin-3-yl)-4-oxo-4,5-dihydro-3H-1-thia-3,5,8-triazaacenaphthylene-2-carboxamide]", "values": [{"measurement": "half-life", "setting": "12 mg, single 12 mg oral solution, male fasted, read-out: t1/2, λz (converted)", "value": 1.6, "unit": "h"}, {"measurement": "Tmax", "setting": "12 mg, single 12 mg oral solution, male fasted, read-out: tmax, median (min-max)", "value": 1, "unit": "h"}, {"measurement": "AUC(0-inf)", "setting": "[1]", "value": 644, "unit": "ng·h/mL"}, {"measurement": "Cmax", "setting": "[1]", "value": 200, "unit": "ng/mL"}, {"measurement": "AUC(0-t)", "setting": "36 mg, single 36 mg oral solution, male fasted, read-out: AUC0-24 h", "value": 649, "unit": "ng·h/mL"}, {"measurement": "AUC(0-t)", "setting": "36 mg, single 36 mg oral solution, male fasted, read-out: AUClast", "value": 649, "unit": "ng·h/mL"}, {"measurement": "half-life", "setting": "36 mg, single 36 mg oral solution, male fasted, read-out: t1/2, dom (converted)", "value": 1.6, "unit": "h"}, {"measurement": "half-life", "setting": "36 mg, single 36 mg oral solution, male fasted, read-out: t1/2, λz (converted)", "value": 2.1, "unit": "h"}, {"measurement": "Tmax", "setting": "36 mg, single 36 mg oral solution, male fasted, read-out: tmax, median (min-max)", "value": 1, "unit": "h"}, {"measurement": "AUC(0-inf)", "setting": "[2]", "value": 20.6, "unit": "ng·h/mL"}, {"measurement": "Cmax", "setting": "[2]", "value": 923, "unit": "ng/mL"}, {"measurement": "AUC(0-t)", "setting": "100 mg, single 100 mg oral solution, male fasted, read-out: AUC0-24 h", "value": 2140, "unit": "ng·h/mL"}, {"measurement": "AUC(0-t)", "setting": "100 mg, single 100 mg oral solution, male fasted, read-out: AUClast", "value": 2140, "unit": "ng·h/mL"}, {"measurement": "half-life", "setting": "100 mg, single 100 mg oral solution, male fasted, read-out: t1/2, dom (converted)", "value": 1.9, "unit": "h"}, {"measurement": "half-life", "setting": "100 mg, single 100 mg oral solution, male fasted, read-out: t1/2, λz (converted)", "value": 5, "unit": "h"}, {"measurement": "Tmax", "setting": "100 mg, single 100 mg oral solution, male fasted, read-out: tmax, median (min-max)", "value": 0.5, "unit": "h"}, {"measurement": "AUC(0-inf)", "setting": "[3]", "value": 1760, "unit": "ng·h/mL"}, {"measurement": "Cmax", "setting": "[3]", "value": 277, "unit": "ng/mL"}, {"measurement": "AUC(0-t)", "setting": "100 mg, single 100 mg oral solution, male fed (high-fat breakfast), read-out: AUC0-24 h", "value": 1720, "unit": "ng·h/mL"}, {"measurement": "AUC(0-t)", "setting": "100 mg, single 100 mg oral solution, male fed (high-fat breakfast), read-out: AUClast", "value": 1750, "unit": "ng·h/mL"}, {"measurement": "half-life", "setting": "100 mg, single 100 mg oral solution, male fed (high-fat breakfast), read-out: t1/2, dom (converted)", "value": 2, "unit": "h"}, {"measurement": "half-life", "setting": "100 mg, single 100 mg oral solution, male fed (high-fat breakfast), read-out: t1/2, λz (converted)", "value": 10.8, "unit": "h"}, {"measurement": "Tmax", "setting": "100 mg, single 100 mg oral solution, male fed (high-fat breakfast), read-out: tmax, median (min-max)", "value": 2.5, "unit": "h"}, {"measurement": "AUC(0-inf)", "setting": "[4]", "value": 1500, "unit": "ng·h/mL"}, {"measurement": "Cmax", "setting": "[4]", "value": 345, "unit": "ng/mL"}, {"measurement": "AUC(0-t)", "setting": "105 mg, single 105 mg (3 × 35 mg) oral capsule, male fasted, read-out: AUC0-24 h", "value": 1320, "unit": "ng·h/mL"}, {"measurement": "AUC(0-t)", "setting": "105 mg, single 105 mg (3 × 35 mg) oral capsule, male fasted, read-out: AUClast", "value": 1450, "unit": "ng·h/mL"}, {"measurement": "half-life", "setting": "105 mg, single 105 mg (3 × 35 mg) oral capsule, male fasted, read-out: t1/2, dom (converted)", "value": 1.9, "unit": "h"}, {"measurement": "half-life", "setting": "105 mg, single 105 mg (3 × 35 mg) oral capsule, male fasted, read-out: t1/2, λz (converted)", "value": 14.2, "unit": "h"}, {"measurement": "Tmax", "setting": "105 mg, single 105 mg (3 × 35 mg) oral capsule, male fasted, read-out: tmax, median (min-max)", "value": 1.5, "unit": "h"}, {"measurement": "AUC(0-inf)", "setting": "[5]", "value": 2780, "unit": "ng·h/mL"}, {"measurement": "Cmax", "setting": "[5]", "value": 1210, "unit": "ng/mL"}, {"measurement": "AUC(0-t)", "setting": "200 mg, single 200 mg oral solution, male fasted, read-out: AUC0-24 h", "value": 2750, "unit": "ng·h/mL"}, {"measurement": "AUC(0-t)", "setting": "200 mg, single 200 mg oral solution, male fasted, read-out: AUClast", "value": 277, "unit": "ng·h/mL"}, {"measurement": "half-life", "setting": "200 mg, single 200 mg oral solution, male fasted, read-out: t1/2, dom (converted)", "value": 1.8, "unit": "h"}, {"measurement": "half-life", "setting": "200 mg, single 200 mg oral solution, male fasted, read-out: t1/2, λz (converted)", "value": 12.9, "unit": "h"}, {"measurement": "Tmax", "setting": "200 mg, single 200 mg oral solution, male fasted, read-out: tmax, median (min-max)", "value": 1, "unit": "h"}, {"measurement": "AUC(0-inf)", "setting": "[6]", "value": 4200, "unit": "ng·h/mL"}, {"measurement": "Cmax", "setting": "[6]", "value": 1920, "unit": "ng/mL"}, {"measurement": "AUC(0-t)", "setting": "400 mg, single 400 mg oral solution, male fasted, read-out: AUC0-24 h", "value": 3700, "unit": "ng·h/mL"}, {"measurement": "AUC(0-t)", "setting": "400 mg, single 400 mg oral solution, male fasted, read-out: AUClast", "value": 3830, "unit": "ng·h/mL"}, {"measurement": "half-life", "setting": "400 mg, single 400 mg oral solution, male fasted, read-out: t1/2, dom (converted)", "value": 2.2, "unit": "h"}, {"measurement": "half-life", "setting": "400 mg, single 400 mg oral solution, male fasted, read-out: t1/2, λz (converted)", "value": 13.2, "unit": "h"}, {"measurement": "Tmax", "setting": "400 mg, single 400 mg oral solution, male fasted, read-out: tmax, median (min-max)", "value": 0.75, "unit": "h"}, {"measurement": "half-life", "setting": "single 4 to 400 mg oral solution, male fasted, read-out: mean t1/2, dom across doses", "value": "1.5 to 2.2", "unit": "h"}, {"measurement": "half-life", "setting": "single 4 to 400 mg oral solution, male fasted, read-out: mean t1/2, λz across doses", "value": "1.6 to 13.2", "unit": "h"}, {"measurement": "Tmax", "setting": "single 4 to 400 mg oral solution, male fasted, read-out: median tmax across doses", "value": "0.5 to 1", "unit": "h"}, {"measurement": "AUC∞/Dose", "setting": "single 4 mg oral solution, male fasted", "value": "38.9 (12.5) h · ng/mL/mg"}, {"measurement": "AUC∞/Dose", "setting": "[7]", "value": "26.4 (9.07) h · ng/mL/mg"}, {"measurement": "Cmax/Dose", "setting": "[7]", "value": 7.33, "unit": "ng/mL"}, {"measurement": "mean Cmax and AUCs, females higher than males by", "setting": "single 36 mg fasted", "value": "17-27%"}, {"measurement": "AUC∞/Dose", "setting": "single 36 mg oral solution, female fasted", "value": "1.9 (0.5) h · ng/mL/mg"}, {"measurement": "AUC∞/Dose", "setting": "single 36 mg oral solution, male fasted", "value": "17.9 (6.64) h · ng/mL/mg"}, {"measurement": "mean Cmax and AUCs, females lower than males by", "setting": "single 100 mg fasted", "value": "30-35%"}, {"measurement": "AUC∞/Dose", "setting": "[8]", "value": "13.4 (4.60) h · ng/mL/mg"}, {"measurement": "t1/2, λz", "setting": "[8]", "value": "11.67 (7.8)^c h"}, {"measurement": "AUC∞/Dose", "setting": "single 100 mg oral solution, male fasted", "value": "20.6 (7.60) h · ng/mL/mg"}, {"measurement": "AUC∞/Dose", "setting": "single 100 mg oral solution, male fed (high-fat breakfast)", "value": "17.6 (4.20) h · ng/mL/mg"}, {"measurement": "Cmax lowered by high-fat meal", "setting": "single 100 mg, fed vs fasted", "value": "approximately 70%"}, {"measurement": "AUC∞/Dose", "setting": "single 105 mg (3 × 35 mg) oral capsule, male fasted", "value": "14.3 (7.59) h · ng/mL/mg"}, {"measurement": "AUC∞/Dose", "setting": "single 200 mg oral solution, male fasted", "value": "13.9 (3.80) h · ng/mL/mg"}, {"measurement": "AUC∞/Dose", "setting": "single 400 mg oral solution, male fasted", "value": "9.11 (4.68) h · ng/mL/mg"}]}]}
